Results on four compounds are retold here after paper PMC3740496, “Synthesis and biological activities of the respiratory chain inhibitor aurachin D and new ring versus chain analogues” (Beilstein Journal of Organic Chemistry, 2013).

For one data set, the system named is bacterial cytochrome bd. More on the design: method as in PMID 7827023. The note with it: cited from earlier work.
Data set [1] has as its system Vero cells (nontumor cells). As to the kind of experiment: Cytotoxicity on Vero cells (MTT). It counts as cell-based. To be noted: 48 h incubation. As to the method: was further incubated for 1.5 h. The medium was then discarded and 100 µL 2-propanol/10 N HCl (250:1) was added in order to dissolve formazan granules. The absorbance at 570 nm was measured using a microplate reader (EL808, Bio-Tek Instruments Inc.) and cell viability was expressed as a percentage relative to the respective solvent control. VERO cells: VERO cells were seeded into 96-well microplates at 10^5 cells per mL in RPMI supplemented with 10% foetal calf serum.
After 24 h, the cells were washed and two microliters of two-fold serial dilutions of each compound (10 mg/mL) was added to 100 μL of medium. Cells were then incubated for 48 h at 37 ° C under a 5% CO2 atmosphere. At the end of incubation, 20 µL of MTT solution (5 mg/mL) was added to each well and further incubated for 4 h at 37 °C to allow the formation of formazan. The crystals of formazan were then dissolved with 100 µL of a freshly prepared solution of sodium dodecyl sulfate (SDS) 10% (15 mL) and HCl 1 N (150 µL). The optical density of each well was measured at 595 nm using a multiwell plate reader. The 50% inhibition concentration was then determined by curve fitting.
MMP assay: Human U-2 OS osteosarcoma cells (HTB-96) were obtained from the American Type Culture Collection (ATCC) and were cultured under the conditions recommended by the depositor. Cells from actively growing cultures were harvested and seeded at 8 × 10^3 cells per well in 96-well imaging plates (BD Falcon). After 1 d cells reached approximately 60% confluency and were treated with aurachin analogues at the assigned concentrations for 16 h. In addition, cells were stimulated with 1 µM FCCP [carbonyl cyanide 4-(trifluoromethoxy)phenylhydrazone] as a positive control 1 h prior to the measurement. For labeling, cells were washed twice with assay buffer ([…], 5.4 mM KCl, 2 mM MgCl2, 10 mM glucose, 2 mM CaCl2, 10 mM HEPES; pH 7.35) and 100 µL of a staining solution (50 nM TMRM,

Data set [2] in a line: Cytotoxicity, growth inhibition (MTT). It counts as cell-based, human. To be noted: human, cell line not named at the place (Table 2: HCT-116 and K562); read-out: cytotoxic activity (IC50) on mammalian cell lines. As to the method:
The cytotoxic activity of aurachin D (4) and analogues 9–11 and 17–19 was evaluated in growth inhibition experiments on mammalian cell lines (Table 2). After 5 days treatment, half inhibitory concentrations (IC50) were determined for human HCT-116 colon carcinoma and human K562 myelogenous leukemia cells. […]
was further incubated for 1.5 h. The medium was then discarded and 100 µL 2-propanol/10 N HCl (250:1) was added in order to dissolve formazan granules. The absorbance at 570 nm was measured using a microplate reader (EL808, Bio-Tek Instruments Inc.) and cell viability was expressed as a percentage relative to the respective solvent control. […]

Each structure is given as a SMILES string. In brackets after ≈: the same amount, converted by molar mass.

The IC50 is the point on the concentration scale where inhibition reaches its midpoint. Consider `CC(C)=CCC/C(C)=C/CC/C(C)=C/Cc1c(C)[nH]c2ccccc2c1=O` [compound 4, aurachin D], for which the “inhibition of the cytochrome bd complex” value in the data set with bacterial cytochrome bd is “selectively inhibit”. In data set [1], this compound yielded a half-inhibitory concentration (IC50) of 13.8 mg/L (≈ 38 µM).
In general, melting point refers to the temperature of the solid-liquid transition. With `CC(C)=CCC/C(C)=C/Cc1c(C)[nH]c2ccccc2c1=O` [compound 9], the melting point lay in the range of 187 to 189 °C.
Take `COc1ccc2[nH]c(C)c(CC=C(C)CCC=C(C)CCC=C(C)C)c(=O)c2c1` [compound 18]: the half-inhibitory concentration (IC50) at 5 days in data set [2] was ~1 mg/L (≈ 2.54 µM).
`CC(C)=CCCC(C)=CCCC(C)=CCc1c(C)[nH]c2cc3c(cc2c1=O)OCO3` [compound 19]: the melting point is 298 to 300 °C (dec.). This compound also returned a concentration for half-maximal inhibition (IC50) in data set [1] of 4.4 mg/L (≈ 10.8 µM).
